Assay results reported in ChEMBL document CHEMBL1201862, “PubChem BioAssay data set” (2004).
Where “and” joins values, the source holds several entries; their conditions need not be identical. Equal values may be shown once.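 Briefly, cells in 96-well plates were exposed to five compound concentrations for 48 h, and endpoints were estimated by linear interpolation. GI50: concentration for 50% inhibition of growth.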 Calls of active or inactive are those of the source. Cut-off read from the data, not from the text of the source: active = GI50 up to about 1.1 µM and inactive = higher.

Columns and labels:
Test in all cases: growth of human tumour cells (NCI), 48 h
ACHN = tested on: ACHN
EKVX = tested on: EKVX
HOP-62 = tested on: HOP-62
HOP-92 = tested on: HOP-92
IGROV-1 = tested on: IGROV-1
K562 = tested on: K562
LOX IMVI = tested on: LOX IMVI
Malme-3M = tested on: Malme-3M
NCI-H23 = tested on: NCI-H23
NCI-H522 = tested on: NCI-H522
OVCAR-4 = tested on: OVCAR-4
OVCAR-5 = tested on: OVCAR-5
OVCAR-8 = tested on: OVCAR-8
RPMI-8226 = tested on: RPMI-8226
SK-MEL-28 = tested on: SK-MEL-28
SK-MEL-2 = tested on: SK-MEL-2
TK-10 = tested on: TK-10
U-251 = tested on: U-251
HL-60 = tested on: HL-60
SK-OV-3 = tested on: SK-OV-3

Measured: GI50

CC(C)(C)C(=O)C(C(c1ccccc1)N1CCOCC1)N1CCOCC1 (stereo not drawn)
inactive: ACHN > 100 µM | EKVX > 100 µM | HOP-62 > 100 µM | HOP-92 > 100 µM | IGROV-1 > 100 µM | K562 > 100 µM | LOX IMVI > 100 µM | Malme-3M > 100 µM | NCI-H23 > 100 µM | NCI-H522 > 100 µM | OVCAR-4 > 100 µM | OVCAR-5 > 100 µM | OVCAR-8 > 100 µM | RPMI-8226 > 100 µM | SK-MEL-28 > 100 µM | SK-MEL-2 > 100 µM | TK-10 > 100 µM | U-251 > 100 µM

CCC(C)NC1=C(NC(C)=O)C(=O)c2ccccc2C1=O (stereo not drawn)
inactive: ACHN > 75 µM | EKVX > 75 µM | HL-60 17.5 µM | HOP-62 > 75 µM | HOP-92 > 75 µM | IGROV-1 > 75 µM | K562 43.9 µM | LOX IMVI 15.6 µM | Malme-3M > 75 µM | NCI-H23 > 75 µM | OVCAR-4 > 75 µM | OVCAR-5 > 75 µM | OVCAR-8 > 75 µM | RPMI-8226 13.4 µM | SK-MEL-28 > 75 µM | SK-MEL-2 > 75 µM | SK-OV-3 > 75 µM | TK-10 > 75 µM | U-251 > 75 µM

C/C(=N\OCC(O)CNC(C)C)c1ccc2c(c1)NC(=O)CS2 (stereo not drawn)
inactive: ACHN > 100 µM | EKVX > 100 µM | HOP-62 > 100 µM | HOP-92 42.1 µM | K562 > 100 µM | LOX IMVI > 100 µM | Malme-3M > 100 µM | NCI-H23 > 100 µM | NCI-H522 > 100 µM | OVCAR-4 > 100 µM | OVCAR-5 > 100 µM | OVCAR-8 > 100 µM | SK-MEL-28 > 100 µM | SK-MEL-2 > 100 µM | SK-OV-3 > 100 µM | TK-10 > 100 µM | U-251 > 100 µM

O=C1c2ccccc2-c2c3c(cc4ccnc1c24)OCO3 [LIRIODENINE]
inactive: ACHN 3.94 µM and 4.32 µM | EKVX 3.46 µM and 5.15 µM | HL-60 3 µM | HOP-62 3.89 µM | HOP-92 8.69 µM and 5.61 µM | IGROV-1 5.97 µM and 3.9 µM | K562 3.42 µM and 4.29 µM | LOX IMVI 3.77 µM and 4.22 µM | Malme-3M 3.59 µM and 3.03 µM | NCI-H23 4.05 µM and 5.4 µM | OVCAR-4 5.07 µM and 8.24 µM | OVCAR-5 16.9 µM and 11.5 µM | OVCAR-8 4.04 µM and 5.14 µM | RPMI-8226 3.2 µM and 3.48 µM | SK-MEL-28 5.58 µM and 5.27 µM | SK-MEL-2 4.19 µM and 6 µM | SK-OV-3 22.2 µM and 17.9 µM | U-251 6.32 µM and 5.45 µM

NC(=S)N/N=c1\cc(C(=O)Nc2ccc([N+](=O)[O-])cc2[N+](=O)[O-])oc2ccccc12
inactive: ACHN > 100 µM | EKVX 49.8 µM | HL-60 > 100 µM | HOP-62 > 100 µM | HOP-92 43.5 µM | IGROV-1 > 100 µM | LOX IMVI > 100 µM | NCI-H23 > 100 µM | NCI-H522 > 100 µM | OVCAR-4 > 100 µM | OVCAR-5 > 100 µM | OVCAR-8 > 100 µM | SK-MEL-28 > 100 µM | SK-MEL-2 > 100 µM | SK-OV-3 99.5 µM | TK-10 > 100 µM | U-251 > 100 µM

COc1ccc(-c2nc(-c3cnccn3)n(COCCO)n2)cc1
inactive: HL-60 > 100 µM | HOP-62 > 100 µM | HOP-92 > 100 µM | IGROV-1 > 100 µM | K562 > 100 µM | LOX IMVI > 100 µM | NCI-H23 > 100 µM | NCI-H522 > 100 µM | OVCAR-4 > 100 µM | OVCAR-5 > 100 µM | OVCAR-8 > 100 µM | RPMI-8226 > 100 µM | SK-MEL-28 > 100 µM | SK-OV-3 > 100 µM | TK-10 > 100 µM | U-251 > 100 µM

CN1CN(c2ccccc2)C2(CCN(Cc3nc4ccccc4s3)CC2)C1=O
inactive: ACHN 19.6 µM | EKVX 20.9 µM | HL-60 11.4 µM | HOP-62 16.6 µM | HOP-92 15 µM | IGROV-1 15.7 µM | K562 13.8 µM | LOX IMVI 17.3 µM | Malme-3M 17.8 µM | NCI-H23 18.1 µM | OVCAR-4 18.6 µM | OVCAR-5 17.7 µM | OVCAR-8 14.4 µM | RPMI-8226 16 µM | SK-MEL-28 17.3 µM | SK-MEL-2 18.6 µM | SK-OV-3 22.2 µM | TK-10 16.3 µM | U-251 16.1 µM

COc1ccc2c(c1)CCc1c-2[nH]c2ccc(OC)cc12
inactive: ACHN > 100 µM | EKVX > 100 µM | HOP-62 > 100 µM | HOP-92 > 100 µM | IGROV-1 > 100 µM | K562 > 100 µM | LOX IMVI > 100 µM | Malme-3M 45.8 µM | NCI-H23 > 100 µM | NCI-H522 > 100 µM | OVCAR-4 > 100 µM | OVCAR-5 > 100 µM | OVCAR-8 > 100 µM | RPMI-8226 > 100 µM | SK-MEL-28 > 100 µM | SK-MEL-2 > 100 µM | SK-OV-3 > 100 µM | TK-10 > 100 µM | U-251 > 100 µM
